Results published in the supplement of paper PMC10307832.

Legend:
Experiment in all cases: relative viability (nuclei count vs DMSO), 5 days (fraction); higher = more cells survive
[1] = test system: A549
How it was run: (§1)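 Medians of duplicate plates are given as relative viability. That measure is the nuclei count in treated wells divided by the count in vehicle wells. Counts were taken on 4× images of lung cancer cell lines in 1536-well plates, 5 days after pin-tool dosing the day after seeding with one drug alone or a fixed anchor-drug dose plus five library-drug doses (not always all listed) in √10 steps.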

[2] = test system: ABC-1
How it was run: as §1

[3] = test system: Calu-6
How it was run: as §1

[4] = test system: EBC-1
How it was run: as §1

[5] = test system: EKVX
How it was run: as §1

[6] = test system: HCC-44
How it was run: as §1

[7] = test system: IA-LM
How it was run: as §1

[8] = test system: NCI-H1299
How it was run: as §1

[9] = test system: NCI-H1648
How it was run: as §1

[10] = test system: NCI-H1703
How it was run: as §1

[11] = test system: NCI-H1993
How it was run: as §1

[12] = test system: NCI-H2085
How it was run: as §1

[13] = test system: NCI-H2126
How it was run: as §1

[14] = test system: RERF-LC-KJ
How it was run: as §1

CC(=O)O[C@@]12CO[C@@H]1C[C@H](O)[C@@]1(C)C(=O)[C@H](O)C3=C(C)[C@@H](OC(=O)[C@H](O)[C@@H](NC(=O)OC(C)(C)C)c4ccccc4)C[C@@](O)([C@@H](OC(=O)c4ccccc4)[C@H]21)C3(C)C [Docetaxel] + O=C(c1cc(Cc2n[nH]c(=O)c3ccccc23)ccc1F)N1CCN(C(=O)C2CC2)CC1 [Olaparib] (partner 8 µM)
relative viability ([1]; first compound 0.0002 µM): 0.341
relative viability ([1]; first compound 0.000632 µM): 0.0796
relative viability ([1]; first compound 0.002 µM): 0.0511
relative viability ([1]; first compound 0.006325 µM): 0.0681
relative viability ([1]; first compound 0.02 µM): 0.0279
relative viability ([2]; first compound 0.0002 µM): 0.649
relative viability ([2]; first compound 0.000632 µM): 0.827
relative viability ([2]; first compound 0.002 µM): 0.564
relative viability ([2]; first compound 0.006325 µM): 0.535
relative viability ([2]; first compound 0.02 µM): 0.338
relative viability ([3]; first compound 0.0002 µM): 0.604
relative viability ([3]; first compound 0.000632 µM): 0.454
relative viability ([3]; first compound 0.002 µM): 0.243
relative viability ([3]; first compound 0.006325 µM): 0.128
relative viability ([3]; first compound 0.02 µM): 0.0895
relative viability ([4]; first compound 0.0002 µM): 0.579
relative viability ([4]; first compound 0.000632 µM): 0.358
relative viability ([4]; first compound 0.002 µM): 0.213
relative viability ([4]; first compound 0.006325 µM): 0.217
relative viability ([4]; first compound 0.02 µM): 0.162
relative viability ([5]; first compound 0.0002 µM): 0.839
relative viability ([5]; first compound 0.000632 µM): 0.557
relative viability ([5]; first compound 0.002 µM): 0.387
relative viability ([5]; first compound 0.006325 µM): 0.316
relative viability ([5]; first compound 0.02 µM): 0.167
relative viability ([6]; first compound 0.0002 µM): 0.978
relative viability ([6]; first compound 0.000632 µM): 0.954
relative viability ([6]; first compound 0.002 µM): 0.908
relative viability ([6]; first compound 0.006325 µM): 0.682
relative viability ([6]; first compound 0.02 µM): 0.616
relative viability ([7]; first compound 0.0002 µM): 0.687
relative viability ([7]; first compound 0.000632 µM): 0.326
relative viability ([7]; first compound 0.002 µM): 0.153
relative viability ([7]; first compound 0.006325 µM): 0.0861
relative viability ([7]; first compound 0.02 µM): 0.074
relative viability ([8]; first compound 0.0002 µM): 0.95
relative viability ([8]; first compound 0.000632 µM): 0.9
relative viability ([8]; first compound 0.002 µM): 0.628
relative viability ([8]; first compound 0.006325 µM): 0.351
relative viability ([8]; first compound 0.02 µM): 0.241
relative viability ([9]; first compound 0.0002 µM): 0.773
relative viability ([9]; first compound 0.000632 µM): 0.563
relative viability ([9]; first compound 0.002 µM): 0.338
relative viability ([9]; first compound 0.006325 µM): 0.279
relative viability ([9]; first compound 0.02 µM): 0.21
relative viability ([10]; first compound 0.0002 µM): 0.372
relative viability ([10]; first compound 0.000632 µM): 0.538
relative viability ([10]; first compound 0.002 µM): 0.204
relative viability ([10]; first compound 0.006325 µM): 0.174
relative viability ([10]; first compound 0.02 µM): 0.0787
relative viability ([11]; first compound 0.0002 µM): 0.929
relative viability ([11]; first compound 0.000632 µM): 0.918
relative viability ([11]; first compound 0.002 µM): 0.793
relative viability ([11]; first compound 0.006325 µM): 0.531
relative viability ([11]; first compound 0.02 µM): 0.409
relative viability ([12]; first compound 0.0002 µM): 0.725
relative viability ([12]; first compound 0.000632 µM): 0.826
relative viability ([12]; first compound 0.002 µM): 0.747
relative viability ([12]; first compound 0.006325 µM): 0.431
relative viability ([12]; first compound 0.02 µM): 0.298
relative viability ([13]; first compound 0.0002 µM): 0.887
relative viability ([13]; first compound 0.000632 µM): 0.861
relative viability ([13]; first compound 0.002 µM): 0.615
relative viability ([13]; first compound 0.006325 µM): 0.348
relative viability ([14]; first compound 0.0002 µM): 0.793
relative viability ([14]; first compound 0.000632 µM): 0.608
relative viability ([14]; first compound 0.002 µM): 0.281
relative viability ([14]; first compound 0.02 µM): 0.172

Cc1sc2c(c1C)C(c1ccc(Cl)cc1)=N[C@@H](CC(=O)OC(C)(C)C)c1nnc(C)n1-2 [JQ1] + NC(=O)Nc1cc(-c2cccc(F)c2)sc1C(=O)N[C@H]1CCCNC1 [AZD7762] (partner 0.2 µM)
relative viability ([2]; first compound 0.04 µM): 0.854
relative viability ([2]; first compound 0.1265 µM): 0.803
relative viability ([2]; first compound 0.4 µM): 0.95
relative viability ([2]; first compound 1.265 µM): 0.596
relative viability ([2]; first compound 4 µM): 0.529
relative viability ([5]; first compound 0.04 µM): 0.721
relative viability ([5]; first compound 0.1265 µM): 0.794
relative viability ([5]; first compound 0.4 µM): 1.03
relative viability ([5]; first compound 1.265 µM): 0.793
relative viability ([5]; first compound 4 µM): 0.455
relative viability ([6]; first compound 0.04 µM): 0.987
relative viability ([6]; first compound 0.1265 µM): 1.14
relative viability ([6]; first compound 0.4 µM): 1.06
relative viability ([6]; first compound 1.265 µM): 1.09
relative viability ([6]; first compound 4 µM): 0.76
relative viability ([9]; first compound 0.04 µM): 0.862
relative viability ([9]; first compound 0.1265 µM): 0.906
relative viability ([9]; first compound 0.4 µM): 0.579
relative viability ([9]; first compound 1.265 µM): 0.376
relative viability ([9]; first compound 4 µM): 0.388
relative viability ([10]; first compound 0.04 µM): 0.111
relative viability ([10]; first compound 0.1265 µM): 0.13
relative viability ([10]; first compound 0.4 µM): 0.155
relative viability ([10]; first compound 1.265 µM): 0.108
relative viability ([10]; first compound 4 µM): 0.118
relative viability ([11]; first compound 0.04 µM): 0.849
relative viability ([11]; first compound 0.1265 µM): 0.779
relative viability ([11]; first compound 0.4 µM): 0.796
relative viability ([11]; first compound 1.265 µM): 0.53
relative viability ([11]; first compound 4 µM): 0.488
relative viability ([12]; first compound 0.04 µM): 0.935
relative viability ([12]; first compound 0.1265 µM): 0.822
relative viability ([12]; first compound 0.4 µM): 1.06
relative viability ([12]; first compound 1.265 µM): 0.446
relative viability ([12]; first compound 4 µM): 0.318
relative viability ([13]; first compound 0.04 µM): 1.08
relative viability ([13]; first compound 0.1265 µM): 1.01
relative viability ([13]; first compound 0.4 µM): 1.04
relative viability ([13]; first compound 1.265 µM): 0.956
relative viability ([13]; first compound 4 µM): 0.838
relative viability ([14]; first compound 0.04 µM): 1.02
relative viability ([14]; first compound 0.1265 µM): 0.803
relative viability ([14]; first compound 0.4 µM): 0.976
relative viability ([14]; first compound 1.265 µM): 0.816
relative viability ([14]; first compound 4 µM): 0.358
